Test system: 565726-208-R1-J5-PDC complex spheroids, growth inhibition
Experiment: Anticancer human tumor 565726-208-R1-J5-PDC patient-derived pancreatic adenocarcinoma cell line growth inhibition [RAS]
Conditions: for IC50: curve of first compound; for viability, T/C: stronger effect = lower value
Outline: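 Tumour cells grown as complex spheroids with HUVEC endothelial cells and mesenchymal stem cells, treated with RAS pathway inhibitor combinations. Each agent spans half-log steps from near clinical Cmax, or 10 microM where Cmax is unknown.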

[1] = second compound 0.0316 µM, first compound 0.00316 µM
[2] = second compound 0.0316 µM, first compound 0.01 µM
[3] = second compound 0.0316 µM, first compound 0.0316 µM
[4] = second compound 0.0316 µM, first compound 0.1 µM
[5] = second compound 0.0316 µM, first compound 0.316 µM
[6] = second compound 0.0316 µM, first compound 1 µM
[7] = second compound 0.1 µM, first compound 0.00316 µM
[8] = second compound 0.1 µM, first compound 0.01 µM
[9] = second compound 0.1 µM, first compound 0.0316 µM
[10] = second compound 0.1 µM, first compound 0.1 µM
[11] = second compound 0.1 µM, first compound 0.316 µM
[12] = second compound 0.1 µM, first compound 1 µM
[13] = second compound 0.316 µM, first compound 0.00316 µM
[14] = second compound 0.316 µM, first compound 0.01 µM
[15] = second compound 0.316 µM, first compound 0.0316 µM
[16] = second compound 0.316 µM, first compound 0.1 µM
[17] = second compound 0.316 µM, first compound 0.316 µM
[18] = second compound 0.316 µM, first compound 1 µM
[19] = second compound 1 µM, first compound 0.00316 µM
[20] = second compound 1 µM, first compound 0.01 µM
[21] = second compound 1 µM, first compound 0.0316 µM
[22] = second compound 1 µM, first compound 0.1 µM
[23] = second compound 1 µM, first compound 0.316 µM
[24] = second compound 1 µM, first compound 1 µM
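Further: spheroids exposed to compounds for seven days before readout.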
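Wherever viability, T/C is given: 100% = DMSO vehicle control viability.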

`O=C(c1ccc(F)c(F)c1Nc1ccc(I)cc1F)N1CC(O)([C@@H]2CCCCN2)C1` + C=CC(=O)N1CCN(c2nc(OCC3CCCN3C)nc3c(F)c(-c4nc(N)cc(C)c4C(F)(F)F)c(Cl)cc23)C(C)C1 was tested, and the IC50 (second compound 0.00316 µM) was 460 nM, the IC50 (second compound 0.01 µM) was 290 nM and the IC50 (second compound 0.0316 µM) was > 1000 nM. The IC50 (second compound 0.1 µM) was 365 nM, the IC50 (second compound 0.316 µM) was > 1000 nM and the IC50 (second compound 1 µM) was 759 nM. The viability, T/C (second compound 0.00316 µM, first compound 0.00316 µM) was 105%, the viability, T/C (second compound 0.00316 µM, first compound 0.01 µM) was 142% and the viability, T/C (second compound 0.00316 µM, first compound 0.0316 µM) was 73.3%. For the same molecule, the viability, T/C (second compound 0.00316 µM, first compound 0.1 µM) was 78.3%, the viability, T/C (second compound 0.00316 µM, first compound 0.316 µM) was 58.1% and the viability, T/C (second compound 0.00316 µM, first compound 1 µM) was 39.1%. The viability, T/C (second compound 0.01 µM, first compound 0.00316 µM) was 120%, the viability, T/C (second compound 0.01 µM, first compound 0.01 µM) was 141% and the viability, T/C (second compound 0.01 µM, first compound 0.0316 µM) was 88.3%. For the same molecule, the viability, T/C (second compound 0.01 µM, first compound 0.1 µM) was 71.3%, the viability, T/C (second compound 0.01 µM, first compound 0.316 µM) was 56.6% and the viability, T/C (second compound 0.01 µM, first compound 1 µM) was 30.1%. For the same molecule, the viability, T/C [1] was 146%, the viability, T/C [2] was 174% and the viability, T/C [3] was 75.4%. It also gave a viability, T/C [4] of 82.4%, a viability, T/C [5] of 56.4% and a viability, T/C [6] of 38.1%. It also gave a viability, T/C [7] of 138%, a viability, T/C [8] of 137% and a viability, T/C [9] of 91.1%. The viability, T/C [10] was 69.8%, the viability, T/C [11] was 60% and the viability, T/C [12] was 36.3%. The viability, T/C [13] was 154%, the viability, T/C [14] was 139% and the viability, T/C [15] was 73.1%. For the same molecule, the viability, T/C [16] was 71.3%, the viability, T/C [17] was 56.7% and the viability, T/C [18] was 38.9%. The viability, T/C [19] was 137%, the viability, T/C [20] was 137% and the viability, T/C [21] was 82.2%. For the same molecule, the viability, T/C [22] was 85.9%, the viability, T/C [23] was 61.2% and the viability, T/C [24] was 50.3%.
`CC(C)n1nc(-c2ccc3oc(N)nc3c2)c2c(N)ncnc21` was tested, and the viability, T/C (compound 0.00316 µM) was 84% [middle of 4 runs], the viability, T/C (compound 0.01 µM) was 66% [middle of 4 runs] and the viability, T/C (compound 0.0316 µM) was 54.3% [middle of 4 runs].
With `C=CC(=O)N1CCN(c2nc(OCC3CCCN3C)nc3c(F)c(-c4nc(N)cc(C)c4C(F)(F)F)c(Cl)cc23)C(C)C1` (configuration not stated) + C#Cc1c(F)ccc2cc(O)cc(-c3ncc4c(N5CC6CCC(C5)N6)nc(OCC56CCCN5CC(F)C6)nc4c3F)c12 the IC50 (second compound 0.0316 µM) was > 1000 nM, the IC50 (second compound 0.1 µM) was > 1000 nM and the IC50 (second compound 0.316 µM) was > 1000 nM. The IC50 (second compound 1 µM) was > 1000 nM, the IC50 (second compound 3.16 µM) was > 1000 nM and the IC50 (second compound 10 µM) was > 1000 nM. For the same molecule, the viability, T/C [1] was 95.7%, the viability, T/C [2] was 138% and the viability, T/C [3] was 98.9%. It also gave a viability, T/C [4] of 103%, a viability, T/C [5] of 87% and a viability, T/C [6] of 104%. It also gave a viability, T/C [7] of 101%, a viability, T/C [8] of 124% and a viability, T/C [9] of 90.8%. The viability, T/C [10] was 94.2%, the viability, T/C [11] was 110% and the viability, T/C [12] was 106%. For the same molecule, the viability, T/C [13] was 94.2%, the viability, T/C [14] was 132% and the viability, T/C [15] was 84.7%. It also gave a viability, T/C [16] of 107%, a viability, T/C [17] of 87.7% and a viability, T/C [18] of 113%. The viability, T/C [19] was 88.8%, the viability, T/C [20] was 113% and the viability, T/C [21] was 81.3%. The viability, T/C [22] was 77.1%, the viability, T/C [23] was 82.8% and the viability, T/C [24] was 84.2%. The viability, T/C (second compound 3.16 µM, first compound 0.00316 µM) was 65.5%, the viability, T/C (second compound 3.16 µM, first compound 0.01 µM) was 88.7% and the viability, T/C (second compound 3.16 µM, first compound 0.0316 µM) was 70%. The viability, T/C (second compound 3.16 µM, first compound 0.1 µM) was 65.6%, the viability, T/C (second compound 3.16 µM, first compound 0.316 µM) was 83% and the viability, T/C (second compound 3.16 µM, first compound 1 µM) was 93.5%. The viability, T/C (second compound 10 µM, first compound 0.00316 µM) was 52.3%, the viability, T/C (second compound 10 µM, first compound 0.01 µM) was 73.5% and the viability, T/C (second compound 10 µM, first compound 0.0316 µM) was 78.3%. For the same molecule, the viability, T/C (second compound 10 µM, first compound 0.1 µM) was 72.4%, the viability, T/C (second compound 10 µM, first compound 0.316 µM) was 69.5% and the viability, T/C (second compound 10 µM, first compound 1 µM) was 71%.
